Experimental data taken from the NIST ThermoML archive (doi:10.1016/j.fluid.2009.08.011).
Numbers after ± are expanded uncertainties.

Assay: cn = amount concentration of the nth substance listed, in mol/dm3
Settings: 101 kPa, Liquid, Alternating current cell with electrodes

CCCCn1cc[n+](C)c1.[I-] [1-butyl-3-methylimidazolium iodide] + O
Settings	molar conductivity [S·m2/mol]
298.15 K, c1 = 0.0009058	0.0138 ± 0.0014
298.15 K, c1 = 0.001366	0.0137 ± 0.0014
298.15 K, c1 = 0.002017	0.0136 ± 0.0014
298.15 K, c1 = 0.002809	0.0135 ± 0.0014
298.15 K, c1 = 0.003715	0.0134 ± 0.0013
298.15 K, c1 = 0.00495	0.0133 ± 0.0013
298.15 K, c1 = 0.006082	0.0132 ± 0.0013
298.15 K, c1 = 0.007529	0.0131 ± 0.0013
298.15 K, c1 = 0.009093	0.0129 ± 0.0013
298.15 K, c1 = 0.01105	0.0127 ± 0.0013
298.15 K, c1 = 0.01306	0.0126 ± 0.0013
298.15 K, c1 = 0.01489	0.0125 ± 0.0012
298.15 K, c1 = 0.01706	0.0123 ± 0.0012
298.15 K, c1 = 0.01978	0.0122 ± 0.0012
298.15 K, c1 = 0.02281	0.012 ± 0.0012
308.15 K, c1 = 0.0004602	0.0139 ± 0.0014
308.15 K, c1 = 0.0008351	0.0138 ± 0.0014
308.15 K, c1 = 0.001278	0.0137 ± 0.0014
308.15 K, c1 = 0.001726	0.0135 ± 0.0014
308.15 K, c1 = 0.002088	0.0135 ± 0.0013
308.15 K, c1 = 0.00254	0.0133 ± 0.0013
308.15 K, c1 = 0.003341	0.0132 ± 0.0013
308.15 K, c1 = 0.004184	0.0131 ± 0.0013
308.15 K, c1 = 0.005066	0.0129 ± 0.0013
308.15 K, c1 = 0.006502	0.0127 ± 0.0013
308.15 K, c1 = 0.007827	0.0126 ± 0.0013
308.15 K, c1 = 0.009685	0.0124 ± 0.0012
308.15 K, c1 = 0.01153	0.0122 ± 0.0012
318.15 K, c1 = 0.0002077	0.0144 ± 0.0014
318.15 K, c1 = 0.0005721	0.0143 ± 0.0014
318.15 K, c1 = 0.000962	0.0142 ± 0.0014
318.15 K, c1 = 0.001339	0.0141 ± 0.0014
318.15 K, c1 = 0.002111	0.0139 ± 0.0014
318.15 K, c1 = 0.002755	0.0138 ± 0.0014
318.15 K, c1 = 0.003581	0.0136 ± 0.0014
318.15 K, c1 = 0.004395	0.0134 ± 0.0013
318.15 K, c1 = 0.005399	0.0132 ± 0.0013
318.15 K, c1 = 0.006692	0.013 ± 0.0013
318.15 K, c1 = 0.007942	0.0128 ± 0.0013
318.15 K, c1 = 0.009561	0.0126 ± 0.0013
318.15 K, c1 = 0.01162	0.0124 ± 0.0012
328.15 K, c1 = 0.0004059	0.0146 ± 0.0015
328.15 K, c1 = 0.00074	0.0145 ± 0.0014
328.15 K, c1 = 0.001116	0.0143 ± 0.0014
328.15 K, c1 = 0.001865	0.0141 ± 0.0014
328.15 K, c1 = 0.002626	0.0139 ± 0.0014
328.15 K, c1 = 0.003374	0.0138 ± 0.0014
328.15 K, c1 = 0.004072	0.0137 ± 0.0014
328.15 K, c1 = 0.005214	0.0134 ± 0.0013
328.15 K, c1 = 0.006444	0.0132 ± 0.0013
328.15 K, c1 = 0.007599	0.013 ± 0.0013
328.15 K, c1 = 0.009252	0.0128 ± 0.0013
328.15 K, c1 = 0.01045	0.0126 ± 0.0013
328.15 K, c1 = 0.01188	0.0125 ± 0.0012
